Values quoted from earlier work in patent publication US20180333418A1, “USE OF PAN FGFR INHIBITORS AND METHOD OF IDENTIFYING PATIENTS WITH CANCER ELIGIBLE FOR TREATMENT WITH A PAN FGFR INHIBITOR” (BAYER PHARMA AKTIENGESELLSCHAFT, priority 2014, published 2018).

Legend:
[1] = system: ovarian cancer cell line A2780; conditions: Guagnano et al.; cited from earlier work
[2] = system: FGFR1-amplified osteosarcoma cell line G-292; conditions: Guagnano et al.; cited from earlier work

## CCN1CCN(c2ccc(Nc3cc(N(C)C(=O)Nc4c(Cl)c(OC)cc(OC)c4Cl)ncn3)cc2)CC1 [BGJ398]
[1]
  sensitivity in vitro towards treatment: sensitive
[2]
  anti-proliferative effects: anti-proliferative effects
